Read-outs that look alike come from different tables or passages of the source.
Assays:
BTK = biological target: T1, BTK (Homo sapiens, UniProt Q06187); assay: In Vitro BTK Kinase Assay: Btk-PolyGAT-LS Assay; assay type: biochemical; details: active BTK enzyme 0.25 nM, polyGAT 100 nM, 30 minutes, TRF readout; read-out: In Vitro BTK Kinase Assay IC50 Score
T1 construct: purchased Upstate 14-552
Summary of the method: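 IC50 values came from a four-parameter fit, with DMSO controls as 100% activity and EDTA controls as 0%. The signal was TR-FRET from a Tb-PY20 antibody binding fluorescein-polyGAT (100 nM) phosphorylated by 0.25 nM BTK. Kinase reactions used 10 μM ATP, a 4-fold compound titration, and ran 30 minutes before EDTA stop.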

[1] = tested on: CD69 expression on CD19+ B cells in human whole blood; assay: In Vitro whole blood CD69 Assay; assay type: cell-based; details: B-cell, read-out: In Vitro HWB CD69 Assay IC50 Score
Summary of the method: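 Heparinized healthy-donor human whole blood was preincubated with compound (0.1% DMSO) for 30 min at 37 °C. Stimulation used 0.1 µg/mL anti-IgD-dextran or 20 µg/mL rabbit F(ab′)2 anti-IgD for 18–22 h at 37 °C. CD69 on gated CD19+ B cells was then measured by flow cytometry.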

[2] = human heparinized whole blood, anti-human IgD stimulation overnight, CD19+ B cells, flow cytometry

T1 sequence (Q06187 whole entry): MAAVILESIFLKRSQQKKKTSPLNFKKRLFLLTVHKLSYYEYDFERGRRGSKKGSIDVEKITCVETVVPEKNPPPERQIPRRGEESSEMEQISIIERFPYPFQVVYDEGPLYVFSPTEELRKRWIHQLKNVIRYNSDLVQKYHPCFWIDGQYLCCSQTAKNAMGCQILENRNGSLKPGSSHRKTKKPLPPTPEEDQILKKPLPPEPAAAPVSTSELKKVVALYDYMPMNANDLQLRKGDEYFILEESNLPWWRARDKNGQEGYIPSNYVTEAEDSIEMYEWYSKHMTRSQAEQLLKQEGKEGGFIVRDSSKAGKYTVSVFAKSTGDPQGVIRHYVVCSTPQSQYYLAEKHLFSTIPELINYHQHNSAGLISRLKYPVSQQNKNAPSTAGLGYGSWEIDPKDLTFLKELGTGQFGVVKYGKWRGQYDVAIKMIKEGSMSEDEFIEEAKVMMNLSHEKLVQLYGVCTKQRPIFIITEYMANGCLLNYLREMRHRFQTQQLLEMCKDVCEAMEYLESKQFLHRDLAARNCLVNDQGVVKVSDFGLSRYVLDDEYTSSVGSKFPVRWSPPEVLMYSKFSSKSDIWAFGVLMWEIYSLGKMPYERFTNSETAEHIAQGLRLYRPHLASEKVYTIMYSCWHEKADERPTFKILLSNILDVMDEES

Which IC50 (BTK) does the source give for `Cn1cc(-c2cn3nccc3c(-c3ccc(CNC(=O)c4nnc(C(C)(C)C)o4)c(C(F)F)c3)n2)cn1` [Example 102, 5-(tert-butyl)-N-(2-(difluoromethyl)-4-(6-(1-methyl-1H-pyrazol-4-yl)pyrazolo[1,5-a]pyrazin-4-yl)benzyl)-1,3,4-oxadiazole-2-carboxamide] here?
Its IC50 is < 1 nM.

And the IC50 [1, 2]?
Its IC50 is < 1000 nM.

Which results are given for `Cn1cc(-c2cn3nccc3c(-c3ccc(CNC(=O)c4nnn(C(C)(C)C)n4)c(F)c3F)n2)cn1` [Example 87, 2-(tert-butyl)-N-(2,3-difluoro-4-(6-(1-methyl-1H-pyrazol-4-yl)pyrazolo[1,5-a]pyrazin-4-yl)benzyl)-2H-tetrazole-5-carboxamide]?
IC50 (BTK): < 1 nM; IC50 [1, 2]: < 1000 nM

What does the source list for `Cn1cc(-c2cn3nccc3c(-c3ccc(CNC(=O)c4ccn(C(C)(C)C)n4)cc3)n2)cn1` [Example 1, 1-(tert-butyl)-N-(4-(6-(1-methyl-1H-pyrazol-4-yl)pyrazolo[1,5-a]pyrazin-4-yl)benzyl)-1H-pyrazole-3-carboxamide]?
IC50 (BTK): 10 to 1000 nM; IC50 [1, 2]: 1000 to 10000 nM

How did the IC50 (BTK) turn out when `Cn1cc(-c2cn3ncnc3c(N3CCC(CNC(=O)c4cn(C(C)(C)C)nn4)CC3)n2)cn1` [Example 74, 1-(tert-butyl)-N-((1-(6-(1-methyl-1H-pyrazol-4-yl)-[1,2,4]triazolo[1,5-a]pyrazin-8-yl)piperidin-4-yl)methyl)-1H-1,2,3-triazole-4-carboxamide] was run?
Its IC50 is 10 to 1000 nM.

What about the IC50 [1, 2] of the same compound?
Its IC50 is 1000 to 10000 nM.

Which IC50 (BTK) does the source give for `Cn1cc(-c2cn3nccc3c(-c3ccc(CNC(=O)c4noc(C5(C)CC5)n4)c(F)c3)n2)cn1` [Example 8, N-(2-fluoro-4-(6-(1-methyl-1H-pyrazol-4-yl)pyrazolo[1,5-a]pyrazin-4-yl)benzyl)-5-(1-methylcyclopropyl)-1,2,4-oxadiazole-3-carboxamide] here?
Its IC50 is < 1 nM.

What about the IC50 [1, 2] of the same compound?
The IC50 was < 1000 nM.

Which IC50 (BTK) does the source give for `CC1CC(CNC(=O)c2noc(C3(C)CC3)n2)CCN1c1nc(-c2cnn(C)c2)cn2nccc12` (stereo not shown) [Example 139, N-((2-methyl-1-(6-(1-methyl-1H-pyrazol-4-yl)pyrazolo[1,5-a]pyrazin-4-yl)piperidin-4-yl)methyl)-5-(1-methylcyclopropyl)-1,2,4-oxadiazole-3-carboxamide] here?
Its IC50 is 1 to 10 nM.

And the IC50 [1, 2]?
Its IC50 is 1000 to 10000 nM.

With `Cn1cc(-c2cn3nccc3c(N3CCC(C)(CNC(=O)c4noc(C5(C)CC5)n4)CC3)n2)cn1` [Example 46, N-((4-methyl-1-(6-(1-methyl-1H-pyrazol-4-yl)pyrazolo[1,5-a]pyrazin-4-yl)piperidin-4-yl)methyl)-5-(1-methylcyclopropyl)-1,2,4-oxadiazole-3-carboxamide] as the compound, how does the IC50 (BTK) read?
The IC50 was 10 to 1000 nM.

And the IC50 [1, 2]?
The IC50 was 1000 to 10000 nM.

With `Cn1cc(-c2cn3nccc3c(-c3ccc(CNC(=O)c4ccn(C(C)(C)C)n4)c(F)c3F)n2)cn1` [Example 91, 1-(tert-butyl)-N-(2,3-difluoro-4-(6-(1-methyl-1H-pyrazol-4-yl)pyrazolo[1,5-a]pyrazin-4-yl)benzyl)-1H-pyrazole-3-carboxamide] as the compound, how does the IC50 (BTK) read?
The IC50 was 1 to 10 nM.

And the IC50 [1, 2]?
The IC50 was 1000 to 10000 nM.

For `Cc1cc(-c2nc(N3CCOCC3)cn3nccc23)ccc1CNC(=O)c1cn(C(C)(C)C)nn1` [Example 120, 1-(tert-butyl)-N-(2-methyl-4-(6-morpholinopyrazolo[1,5-a]pyrazin-4-yl)benzyl)-1H-1,2,3-triazole-4-carboxamide], which IC50 (BTK) is on record?
The IC50 was 1 to 10 nM.

What about the IC50 [1, 2] of the same compound?
Its IC50 is 1000 to 10000 nM.

`Cn1cc(-c2cn3nccc3c(-c3ccc(CNC(=O)c4coc(C(C)(C)C)n4)c(F)c3F)n2)cn1` [Example 90, 2-(tert-butyl)-N-(2,3-difluoro-4-(6-(1-methyl-1H-pyrazol-4-yl)pyrazolo[1,5-a]pyrazin-4-yl)benzyl)oxazole-4-carboxamide] was tested. Which IC50 (BTK) did it give?
Its IC50 is < 1 nM.

What about the IC50 [1, 2] of the same compound?
The IC50 was < 1000 nM.

`CN1CCN(c2cn3nccc3c(-c3ccc(CNC(=O)c4nc(C(C)(C)C)no4)c(F)c3)n2)CC1` [Example 118, 3-(tert-butyl)-N-(2-fluoro-4-(6-(4-methylpiperazin-1-yl)pyrazolo[1,5-a]pyrazin-4-yl)benzyl)-1,2,4-oxadiazole-5-carboxamide] was tested. Which IC50 (BTK) did it give?
Its IC50 is 1 to 10 nM.

And the IC50 [1, 2]?
Its IC50 is 1000 to 10000 nM.

Which IC50 (BTK) does the source give for `Cc1cc(-c2cc(-c3cnn(C)c3)cn3nccc23)ccc1CNC(=O)c1cn(C(C)(C)C)nn1` [Example 66, 1-(tert-butyl)-N-(2-methyl-4-(6-(1-methyl-1H-pyrazol-4-yl)pyrazolo[1,5-a]pyridin-4-yl)benzyl)-1H-1,2,3-triazole-4-carboxamide] here?
The IC50 was < 1 nM.

And the IC50 [1, 2]?
Its IC50 is < 1000 nM.

Which IC50 (BTK) does the source give for `Cc1cc(-c2nc(-c3cnn(C)c3)cn3nccc23)ccc1CN1CCN(CC(C)(C)C)CC1=O` [Example 31, 1-(2-methyl-4-(6-(1-methyl-1H-pyrazol-4-yl)pyrazolo[1,5-a]pyrazin-4-yl)benzyl)-4-neopentylpiperazin-2-one] here?
The IC50 was 1 to 10 nM.

And the IC50 [1, 2]?
Its IC50 is 1000 to 10000 nM.

Which IC50 (BTK) does the source give for `Cn1cc(-c2cc(-c3ccc(CNC(=O)c4noc(C5(C)CC5)n4)cc3)n3cnnc3c2)cn1` [Example 76, N-(4-(7-(1-methyl-1H-pyrazol-4-yl)-[1,2,4]triazolo[4,3-a]pyridin-5-yl)benzyl)-5-(1-methylcyclopropyl)-1,2,4-oxadiazole-3-carboxamide] here?
Its IC50 is 10 to 1000 nM.

What about the IC50 [1, 2] of the same compound?
Its IC50 is 1000 to 10000 nM.

Which results are given for `Cn1cc(-c2cn3nccc3c(-c3cc(F)c(CNC(=O)c4nc(C(C)(C)C)no4)cc3F)n2)cn1` [Example 94, 3-(tert-butyl)-N-(2,5-difluoro-4-(6-(1-methyl-1H-pyrazol-4-yl)pyrazolo[1,5-a]pyrazin-4-yl)benzyl)-1,2,4-oxadiazole-5-carboxamide]?
IC50 (BTK): < 1 nM; IC50 [1, 2]: < 1000 nM

For `Cn1cc(-c2cc(-c3ccc(CNC(=O)c4noc(C5(C)CC5)n4)c(F)c3)c3ccnn3c2)cn1` [Example 67, N-(2-fluoro-4-(6-(1-methyl-1H-pyrazol-4-yl)pyrazolo[1,5-a]pyridin-4-yl)benzyl)-5-(1-methylcyclopropyl)-1,2,4-oxadiazole-3-carboxamide], which IC50 (BTK) is on record?
Its IC50 is < 1 nM.

And the IC50 ([1]; Homo sapiens)?
The IC50 was < 1000 nM.

Which results are given for `Cc1cc(-c2nccn3nccc23)ccc1CNC(=O)c1noc(C(C)(C)C)n1` [Example 85, 5-(tert-butyl)-N-(2-methyl-4-(pyrazolo[1,5-a]pyrazin-4-yl)benzyl)-1,2,4-oxadiazole-3-carboxamide]?
IC50 (BTK): 1 to 10 nM; IC50 [1, 2]: 1000 to 10000 nM

Which IC50 (BTK) does the source give for `Cn1cc(-c2cn3nccc3c(-c3ccc(CNC(=O)c4coc(C(C)(C)C)n4)c(F)c3)n2)cn1` [Example 12, 2-(tert-butyl)-N-(2-fluoro-4-(6-(1-methyl-1H-pyrazol-4-yl)pyrazolo[1,5-a]pyrazin-4-yl)benzyl)oxazole-4-carboxamide] here?
The IC50 was < 1 nM.

And the IC50 [1, 2]?
Its IC50 is < 1000 nM.

For `Cn1cc(-c2cn3nccc3c(-c3ccc(CNC(=O)c4noc(C(C)(C)C)n4)nc3)n2)cn1` [Example 116, 5-(tert-butyl)-N-((5-(6-(1-methyl-1H-pyrazol-4-yl)pyrazolo[1,5-a]pyrazin-4-yl)pyridin-2-yl)methyl)-1,2,4-oxadiazole-3-carboxamide], which IC50 (BTK) is on record?
Its IC50 is 1 to 10 nM.

What about the IC50 [1, 2] of the same compound?
The IC50 was 1000 to 10000 nM.

How did the IC50 (BTK) turn out when `Cn1cc(-c2cn3nccc3c(-c3ccc(CNC(=O)c4nc(C(C)(C)C)no4)c(F)c3F)n2)cn1` [Example 89, 3-(tert-butyl)-N-(2,3-difluoro-4-(6-(1-methyl-1H-pyrazol-4-yl)pyrazolo[1,5-a]pyrazin-4-yl)benzyl)-1,2,4-oxadiazole-5-carboxamide] was run?
The IC50 was < 1 nM.

What about the IC50 ([1]; Homo sapiens) of the same compound?
The IC50 was < 1000 nM.

What does the source list for `Cn1cc(-c2cn3nccc3c(N3CC[C@H](CNC(=O)c4noc(C5(C)CC5)n4)[C@H](F)C3)n2)cn1` [Example 154, N-(((3S,4R)-3-fluoro-1-(6-(1-methyl-1H-pyrazol-4-yl)pyrazolo[1,5-a]pyrazin-4-yl)piperidin-4-yl)methyl)-5-(1-methylcyclopropyl)-1,2,4-oxadiazole-3-carboxamide]?
IC50 (BTK): 10 to 1000 nM; IC50 [1, 2]: 1000 to 10000 nM

`Cn1cc(-c2cn3nccc3c(-c3ccc(CNC(=O)c4cnn(C(C)(C)C)c4)cc3)n2)cn1` [Example 2, 1-(tert-butyl)-N-(4-(6-(1-methyl-1H-pyrazol-4-yl)pyrazolo[1,5-a]pyrazin-4-yl)benzyl)-1H-pyrazole-4-carboxamide] was tested. Which IC50 (BTK) did it give?
Its IC50 is 1 to 10 nM.

What about the IC50 [1, 2] of the same compound?
Its IC50 is < 1000 nM.

Which results are given for `Cn1cc(-c2cn3nccc3c(N3CCC(CNC(=O)c4noc(C(C)(C)C)n4)C(F)(F)C3)n2)cn1` (stereo not shown) [Example 157, 5-(tert-butyl)-N-((3,3-difluoro-1-(6-(1-methyl-1H-pyrazol-4-yl)pyrazolo[1,5-a]pyrazin-4-yl)piperidin-4-yl)methyl)-1,2,4-oxadiazole-3-carboxamide]?
IC50 (BTK): < 1 nM; IC50 [1, 2]: < 1000 nM

Which results are given for `C[C@@H]1C(c2nc(C(=O)NCc3ccc(-c4nc(-c5cnn(C)c5)cc5nccn45)cc3)no2)[C@@H]1C` (mixture of isomers) [Example 62, 5-(2,3-cis-dimethylcyclopropyl)-N-(4-(7-(1-methyl-1H-pyrazol-4-yl)imidazo[1,2-c]pyrimidin-5-yl)benzyl)-1,2,4-oxadiazole-3-carboxamide]?
IC50 (BTK): 1 to 10 nM; IC50 ([1]; Homo sapiens): 1000 to 10000 nM

Which results are given for `Cn1cc(-c2cn3nccc3c(-c3cc(F)c(CNC(=O)c4cn(C(C)(C)C)nn4)cc3F)n2)cn1` [Example 98, 1-(tert-butyl)-N-(2,5-difluoro-4-(6-(1-methyl-1H-pyrazol-4-yl)pyrazolo[1,5-a]pyrazin-4-yl)benzyl)-1H-1,2,3-triazole-4-carboxamide]?
IC50 (BTK): 1 to 10 nM; IC50 [1, 2]: 1000 to 10000 nM

Which results are given for `CC(C)(C)c1noc(C(=O)NCc2ccc(-c3nc(N4CCOCC4)cn4nccc34)cc2)n1` [Example 24, 3-(tert-butyl)-N-(4-(6-morpholinopyrazolo[1,5-a]pyrazin-4-yl)benzyl)-1,2,4-oxadiazole-5-carboxamide]?
IC50 (BTK): 10 to 1000 nM; IC50 [1, 2]: 1000 to 10000 nM

— patent US20250034150A1, “BTK INHIBITORS” (BIOGEN MA INC., priority 2021, published 2025)
